Source: patent EP0324390A2, “Nigericin derivatives, method for their preparation, compositions containing them and use of these compositions” (priority 1988, dated 1989)
Values after ≈ are worked out from the molar mass of the structure shown.

Assays:
Assay in all cases: Agar dilution test according to Lorian (antibacterial activity)
Type in all cases: cell-based
Strept. faecium (D) = tested on: Strept. faecium (D)
Protocol: (§1) Die antibakterielle Wirksamkeit der erfindungsgemäßen Verbindungen wurde im Agar-Verdünnungstest nach Lorian (Antibiotics in Laboratory Medicine, Williams & Wilkins, Baltimore/London, 1980) bestimmt. Dabei wurden die Präparate in einer geometrischen Verdünnungsreihe mit dem Faktor 2 in Müller Hinton Agar verdünnt. Eine Petrischale enthielt nur Müller Hinton Agar und diente zur Kontrolle des Bakterienwachstums. Die Petrischalen wurden dann mit einem Denley-Multipoint-Inokulator, welcher 0,6 ul einer 1 : 100 verdünnten 18-Stunden-Kultur der Testbakterien übertrug, mit den entsprechenden Testbakterien beimpft. Nach 16 bis 18 Stunden Inkubation bei 37^. C wurden die Petrischalen makroskopisch auf Bakterienwachstum untersucht.
(§2) Die niedrigste Konzentration der erfindungsgemäßen Verbindungen, welche das Bakterienwachstum noch vollständig verhinderte, wurde als MIC (Minimum Inhibitory Concentration) angenommen.
(§3) In Tabelle 4 ist die Wirkung (Angabe des MIC in µg/ml) von verschiedenen erfindungsgemäßen Verbindungen gegen folgende Bakterien aufgeführt: • Staph. aureus (SG 511), Staph. aureus (285), Staph. aureus (503), Strept. pyogenes (308 A), Strept pyogenes (77 A), Strept. faecium (D).

Staph. aureus (285) = tested on: Staph. aureus (285)
Protocol: as §1, §2, §3

Staph. aureus (503) = tested on: Staph. aureus (503)
Protocol: as §1, §2, §3

Staph. aureus (SG 511) = tested on: Staph. aureus (SG 511)
Protocol: as §1, §2, §3

Strept. pyogenes (308 A) = tested on: Strept. pyogenes (308 A)
Protocol: as §1, §2, §3

Strept. pyogenes (77 A) = tested on: Strept. pyogenes (77 A)
Protocol: as §1, §2, §3

[1] = Müller Hinton Agar, 16 to 18 h at 37 C, lowest concentration fully preventing growth

Row | Structure (SMILES) | MIC (Strept. faecium (D); Enterococcus faecium) | MIC (Staph. aureus (285); [1]) | MIC (Staph. aureus (503); [1]) | MIC (Staph. aureus (SG 511); [1]) | MIC (Strept. faecium (D); [1]) | MIC (Strept. pyogenes (308 A); [1]) | MIC (Strept. pyogenes (77 A); [1]) | MIC (Staph. aureus (285); Staphylococcus aureus) | MIC (Staph. aureus (503); Staphylococcus aureus) | MIC (Staph. aureus (SG 511); Staphylococcus aureus) | MIC (Strept. pyogenes (308 A); Streptococcus pyogenes) | MIC (Strept. pyogenes (77 A); Streptococcus pyogenes)
1 | COC1CC(CC2CCC(C)C(C(C)C(=O)O)O2)OC2(OC(C)(C3CCC(C)(C4OC(C5OC(O)(COC(=O)C=CC(=O)O)C(C)CC5C)CC4C)O3)CC2C)C1C (stereo not drawn) [Beispiel 23] | 0.39 µg/mL (≈ 0.474 µM) |  |  |  |  |  |  |  |  |  |  | 
2 | COC1CC(CC2CCC(C)C(C(C)C(=O)O)O2)OC2(OC(C)(C3CCC(C)(C4OC(C5OC(O)(COC(=O)Nc6ccc(Cl)cc6)C(C)CC5C)CC4C)O3)CC2C)C1C (stereo not drawn) [Beispiel 14] |  | 100,0 µg/ml | 50,0 µg/ml | 100,0 µg/ml | 100,0 µg/ml | 25,0 µg/ml | 12,5 µg/ml |  |  |  |  | 
3 | CCCCCCCCCCCCCCCCCCCCCC(=O)OCC1(O)OC(C2CC(C)C(C3(C)CCC(C4(C)CC(C)C5(OC(CC6CCC(C)C(C(C)C(=O)O)O6)CC(OC)C5C)O4)O3)O2)C(C)CC1C (stereo not drawn) [Beispiel 30] | 100 µg/mL (≈ 95.5 µM) |  |  |  |  |  |  | 100 µg/mL (≈ 95.5 µM) | 50 µg/mL (≈ 47.7 µM) | 100 µg/mL (≈ 95.5 µM) | 25 µg/mL (≈ 23.9 µM) | 25 µg/mL (≈ 23.9 µM)
4 | COC1CC(CC2CCC(C)C(C(C)C(=O)O)O2)OC2(OC(C)(C3CCC(C)(C4OC(C5OC(O)(COC(=O)C(C)C)C(C)CC5C)CC4C)O3)CC2C)C1C (stereo not drawn) [Beispiel 27] | > 100 µg/mL |  |  |  |  |  |  | 0.39 µg/mL (≈ 0.491 µM) | 0.19 µg/mL (≈ 0.239 µM) | 0.39 µg/mL (≈ 0.491 µM) |  | 
5 | COC1CC(CC2CCC(C)C(C(C)C(=O)O)O2)OC2(OC(C)(C3CCC(C)(C4OC(C5OC(O)(COC(=O)c6ccccc6)C(C)CC5C)CC4C)O3)CC2C)C1C (stereo not drawn) [Beispiel 6] |  | 0,391 µg/ml | 0,098 µg/ml | 0,098 µg/ml | 0,391 µg/ml | 0,013 µg/ml | 0,013 µg/ml |  |  |  |  | 
6 | COC1CC(CC2CCC(C)C(C(C)C(=O)O)O2)OC2(OC(C)(C3CCC(C)(C4OC(C5OC(O)(COS(=O)(=O)O)C(C)CC5C)CC4C)O3)CC2C)C1C (stereo not drawn) [Beispiel 15] |  | 1,56 µg/ml | 0,78 µg/ml | 1,56 µg/ml | 3,13 µg/ml | 1,56 µg/ml | 0,78 µg/ml |  |  |  |  | 
7 | COC1CC(CC2CCC(C)C(C(C)C(=O)O)O2)OC2(OC(C)(C3CCC(C)(C4OC(C5OC(O)(COC(C)=O)C(C)CC5C)CC4C)O3)CC2C)C1C (stereo not drawn) [Beispiel 5] |  | 0,391 µg/ml | 0,391 µg/ml | 0,391 µg/ml | 0,781 µg/ml | 0,098 µg/ml | 0,098 µg/ml |  |  |  |  | 
8 | COC1CC(CC2CCC(C)C(C(C)C(=O)O)O2)OC2(OC(C)(C3CCC(C)(C4OC(C5OC(O)(COC(=O)CCC(=O)O)C(C)CC5C)CC4C)O3)CC2C)C1C (stereo not drawn) [Beispiel 11] |  | 0,195 µg/ml | 0,098 µg/ml | 0,391 µg/ml | 0,391 µg/ml | 0,025 µg/ml | 0,025 µg/ml |  |  |  |  | 
9 | COC1CC(CC2CCC(C)C(C(C)C(=O)O)O2)OC2(OC(C)(C3CCC(C)(C4OC(C5OC(O)(COC(=O)c6ccccc6C(=O)O)C(C)CC5C)CC4C)O3)CC2C)C1C (stereo not drawn) [Beispiel 31] |  |  |  |  |  |  |  | 0.78 µg/mL (≈ 0.893 µM) | 0.78 µg/mL (≈ 0.893 µM) | 0.78 µg/mL (≈ 0.893 µM) |  | 
10 | COC1CC(CC2CCC(C)C(C(C)C(=O)O)O2)OC2(OC(C)(C3CCC(C)(C4OC(C5OC(O)(COC(=O)C=C(C)C(=O)O)C(C)CC5C)CC4C)O3)CC2C)C1C (stereo not drawn) [Beispiel 22] | 6.25 µg/mL (≈ 7.47 µM) |  |  |  |  |  |  | 6.25 µg/mL (≈ 7.47 µM) | 6.25 µg/mL (≈ 7.47 µM) | 6.25 µg/mL (≈ 7.47 µM) | 0.78 µg/mL (≈ 0.932 µM) | 0.78 µg/mL (≈ 0.932 µM)
11 | CCCCCCCCCCCC(=O)OCC1(O)OC(C2CC(C)C(C3(C)CCC(C4(C)CC(C)C5(OC(CC6CCC(C)C(C(C)C(=O)O)O6)CC(OC)C5C)O4)O3)O2)C(C)CC1C (stereo not drawn) [Beispiel 10] |  | 6,25 µg/ml | 3,13 µg/ml | 6,25 µg/ml | 6,25 µg/ml | 0,781 µg/ml | 0,781 µg/ml |  |  |  |  | 
12 | COC1CC(CC2CCC(C)C(C(C)C(=O)O)O2)OC2(OC(C)(C3CCC(C)(C4OC(C5OC(O)(COC(=O)c6c(Br)c(Br)c(Br)c(Br)c6C(=O)O)C(C)CC5C)CC4C)O3)CC2C)C1C (stereo not drawn) [Beispiel 29] | 3.13 µg/mL (≈ 2.63 µM) |  |  |  |  |  |  | 3.13 µg/mL (≈ 2.63 µM) | 1.56 µg/mL (≈ 1.31 µM) | 1.56 µg/mL (≈ 1.31 µM) |  | 
